{"source": "paper PMC3876893", "about": "(Journal of the American Chemical Society, 2013)", "target": "CalE8 (Micromonospora echinospora, UniProt Q8KNG1)", "sequence (Q8KNG1 1-1919)": "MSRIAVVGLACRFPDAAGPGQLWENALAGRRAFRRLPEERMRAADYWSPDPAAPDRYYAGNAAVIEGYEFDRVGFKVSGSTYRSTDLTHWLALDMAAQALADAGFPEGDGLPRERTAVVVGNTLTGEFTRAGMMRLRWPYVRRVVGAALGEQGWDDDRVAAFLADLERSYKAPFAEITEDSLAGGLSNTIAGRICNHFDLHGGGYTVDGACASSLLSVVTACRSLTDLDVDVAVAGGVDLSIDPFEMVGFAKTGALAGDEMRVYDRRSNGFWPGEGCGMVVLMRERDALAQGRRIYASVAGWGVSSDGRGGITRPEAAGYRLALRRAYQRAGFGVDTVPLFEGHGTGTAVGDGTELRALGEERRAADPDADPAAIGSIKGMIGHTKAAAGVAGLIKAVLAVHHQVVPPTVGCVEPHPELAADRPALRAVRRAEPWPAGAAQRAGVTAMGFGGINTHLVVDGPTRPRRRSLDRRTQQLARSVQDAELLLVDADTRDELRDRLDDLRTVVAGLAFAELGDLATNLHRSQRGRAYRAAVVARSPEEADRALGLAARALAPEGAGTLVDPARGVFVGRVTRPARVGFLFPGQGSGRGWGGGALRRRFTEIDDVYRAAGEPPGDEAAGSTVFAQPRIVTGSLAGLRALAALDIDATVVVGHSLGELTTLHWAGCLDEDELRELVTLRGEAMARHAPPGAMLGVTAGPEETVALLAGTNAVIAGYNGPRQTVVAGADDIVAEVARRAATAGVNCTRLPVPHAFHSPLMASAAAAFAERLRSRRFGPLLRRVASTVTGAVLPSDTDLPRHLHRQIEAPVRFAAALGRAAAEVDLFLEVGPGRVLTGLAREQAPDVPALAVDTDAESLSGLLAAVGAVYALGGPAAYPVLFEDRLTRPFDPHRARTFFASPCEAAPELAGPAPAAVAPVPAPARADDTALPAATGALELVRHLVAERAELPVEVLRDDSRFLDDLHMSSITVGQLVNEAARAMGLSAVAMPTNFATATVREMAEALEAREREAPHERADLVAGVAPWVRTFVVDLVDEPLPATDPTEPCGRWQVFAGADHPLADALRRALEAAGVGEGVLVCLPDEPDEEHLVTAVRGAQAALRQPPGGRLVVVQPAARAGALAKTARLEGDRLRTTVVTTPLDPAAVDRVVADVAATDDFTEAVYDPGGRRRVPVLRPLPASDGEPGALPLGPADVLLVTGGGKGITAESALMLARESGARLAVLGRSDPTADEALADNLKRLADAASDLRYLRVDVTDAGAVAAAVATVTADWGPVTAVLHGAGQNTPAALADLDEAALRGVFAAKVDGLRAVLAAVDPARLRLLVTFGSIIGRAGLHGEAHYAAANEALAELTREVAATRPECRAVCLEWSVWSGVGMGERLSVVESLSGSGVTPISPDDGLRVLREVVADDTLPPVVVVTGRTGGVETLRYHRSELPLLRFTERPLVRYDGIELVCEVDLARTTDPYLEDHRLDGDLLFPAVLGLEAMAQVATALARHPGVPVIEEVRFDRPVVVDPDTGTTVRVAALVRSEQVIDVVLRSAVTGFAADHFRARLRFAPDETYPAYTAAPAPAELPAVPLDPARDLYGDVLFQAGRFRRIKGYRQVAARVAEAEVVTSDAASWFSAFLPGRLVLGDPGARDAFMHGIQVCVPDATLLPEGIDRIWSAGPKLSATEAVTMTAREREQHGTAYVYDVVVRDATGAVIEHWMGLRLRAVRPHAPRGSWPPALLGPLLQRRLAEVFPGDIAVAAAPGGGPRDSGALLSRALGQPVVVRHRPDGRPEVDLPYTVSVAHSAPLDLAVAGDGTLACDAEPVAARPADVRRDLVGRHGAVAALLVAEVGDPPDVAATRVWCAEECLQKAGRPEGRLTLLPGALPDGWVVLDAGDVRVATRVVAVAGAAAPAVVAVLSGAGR", "experiment": "in vitro reconstitution, HPLC/LCMS of base-released polyketides", "format": "biochemical", "details": "NADPH co-substrate (0.5 mM each), pH 7.0, 24 °C, no CalE7 thioesterase"}
{"smiles": "CC(=O)NCCSC(=O)CC(=O)O", "note": "[malonyl-SNAc]", "values": [{"measurement": "in vitro reconstitution, HPLC/LCMS of base-released polyketides", "result": "polyketide profiles of CalE8 are consistent when MalCoA is replaced by malonyl-SNAc (MalSNAc)"}]}
